Experimental findings from paper PMC3628110, “Mechanism for priming DNA synthesis by yeast DNA Polymerase α” (eLife, 2013) are described below.

Data set [1] concerns the target T1, Pol α (catalytic core, 349–1258) (Saccharomyces cerevisiae, UniProt P13382, R508A/N509A/D998N).
T1 construct: gene POL1; catalytic core, residues 349-1258 (910 aa); N-terminal dual His/Strep tag, TEV-cleaved; E. coli BL21(DE3)Rosetta2
T1 sequence (P13382 349-1258 R508A/N509A/D998N): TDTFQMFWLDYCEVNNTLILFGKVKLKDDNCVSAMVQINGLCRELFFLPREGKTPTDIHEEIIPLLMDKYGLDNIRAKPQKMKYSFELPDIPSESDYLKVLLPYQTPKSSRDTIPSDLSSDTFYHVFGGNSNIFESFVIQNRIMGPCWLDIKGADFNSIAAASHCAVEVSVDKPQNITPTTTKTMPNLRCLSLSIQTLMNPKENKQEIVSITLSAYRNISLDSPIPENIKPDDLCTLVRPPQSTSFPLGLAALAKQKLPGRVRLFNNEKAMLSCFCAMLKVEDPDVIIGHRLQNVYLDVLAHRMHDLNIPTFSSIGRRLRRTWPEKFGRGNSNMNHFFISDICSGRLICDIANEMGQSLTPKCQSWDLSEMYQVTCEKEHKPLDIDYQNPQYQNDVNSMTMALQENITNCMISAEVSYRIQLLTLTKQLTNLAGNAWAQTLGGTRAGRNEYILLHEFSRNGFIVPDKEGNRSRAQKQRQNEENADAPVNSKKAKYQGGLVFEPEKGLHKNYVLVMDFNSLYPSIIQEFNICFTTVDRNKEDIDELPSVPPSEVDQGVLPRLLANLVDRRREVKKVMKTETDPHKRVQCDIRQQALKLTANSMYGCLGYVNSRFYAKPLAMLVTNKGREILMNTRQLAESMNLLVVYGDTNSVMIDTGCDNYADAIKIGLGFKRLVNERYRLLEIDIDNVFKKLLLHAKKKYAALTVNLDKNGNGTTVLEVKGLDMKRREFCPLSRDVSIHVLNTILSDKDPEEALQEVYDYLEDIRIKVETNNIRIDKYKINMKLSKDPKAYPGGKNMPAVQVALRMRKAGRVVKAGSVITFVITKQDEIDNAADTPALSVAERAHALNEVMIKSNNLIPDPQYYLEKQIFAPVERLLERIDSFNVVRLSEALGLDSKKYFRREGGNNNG
Kind of data set: primer extension assay, denaturing gel. Type of data set: biochemical. To be noted: labelled compound ([α-32P]dATP); poly(dT) 70mer template; up to 10 μM protein; 90 s.

Data set [2] addresses T1, Pol α (catalytic core, 349–1258). As to the kind of experiment: X-ray crystal structure of ternary complex, […] Å. The data set is classed as binding. To be noted: RNA 10mer primer/DNA 25mer template; 5 mM dGTP; 200 mM Mg acetate; polymerase active site; primer extended by dGMP during crystallization (mass spectrometry).
The target in data set [3] is T2, DNA polymerase alpha catalytic core (Pol α), wild type (Saccharomyces cerevisiae, UniProt P13382 349-1258).
T2 sequence: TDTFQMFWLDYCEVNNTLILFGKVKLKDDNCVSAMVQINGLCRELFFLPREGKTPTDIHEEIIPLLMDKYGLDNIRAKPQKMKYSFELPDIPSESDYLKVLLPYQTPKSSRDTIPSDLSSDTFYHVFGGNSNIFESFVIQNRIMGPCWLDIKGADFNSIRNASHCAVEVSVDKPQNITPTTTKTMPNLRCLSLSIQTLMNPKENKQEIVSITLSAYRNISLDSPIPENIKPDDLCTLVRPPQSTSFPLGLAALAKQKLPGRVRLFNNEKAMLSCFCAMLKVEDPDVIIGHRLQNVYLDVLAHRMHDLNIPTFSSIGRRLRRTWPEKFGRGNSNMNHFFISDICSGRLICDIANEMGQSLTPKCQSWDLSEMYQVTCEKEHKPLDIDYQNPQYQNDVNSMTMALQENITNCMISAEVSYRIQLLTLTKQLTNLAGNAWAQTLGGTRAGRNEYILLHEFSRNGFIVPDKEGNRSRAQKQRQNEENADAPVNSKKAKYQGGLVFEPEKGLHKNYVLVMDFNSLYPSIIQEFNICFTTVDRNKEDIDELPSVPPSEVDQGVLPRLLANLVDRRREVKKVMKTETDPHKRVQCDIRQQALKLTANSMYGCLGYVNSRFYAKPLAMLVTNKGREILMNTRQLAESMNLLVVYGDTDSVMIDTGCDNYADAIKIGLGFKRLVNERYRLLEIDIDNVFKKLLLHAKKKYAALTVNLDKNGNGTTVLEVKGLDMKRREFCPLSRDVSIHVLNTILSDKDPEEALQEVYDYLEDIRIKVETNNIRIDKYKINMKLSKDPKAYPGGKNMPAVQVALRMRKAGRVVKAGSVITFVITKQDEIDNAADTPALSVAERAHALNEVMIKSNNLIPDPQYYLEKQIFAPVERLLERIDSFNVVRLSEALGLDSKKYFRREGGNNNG
Kind of data set: X-ray crystallography (3.0 Å); 10 mM MgCl2, 1 mM ddCTP in drop (no ddCTP density); Crystals only: binary 0.1 M Bicine pH 8.0, 12% PEG 3350, 10 mM MgCl2, 18 °C; ternary 200 mM Mg acetate, 10% PEG 8000, 5 mM dGTP, micro-batch (3% glycerol). Primer extension assays are turnover only and not listed. To be noted: protein: recombinant; tags: N-terminal dual His/streptavidin tag, TEV-cleaved; 5' overhang 6 nt on template; 10 bp.

The target of data set [4] is T3, DNA polymerase alpha catalytic core (Pol α), R508A N509A D998N (Saccharomyces cerevisiae, UniProt P13382 349-1258, R508A;N509A;D998N).
T3 sequence: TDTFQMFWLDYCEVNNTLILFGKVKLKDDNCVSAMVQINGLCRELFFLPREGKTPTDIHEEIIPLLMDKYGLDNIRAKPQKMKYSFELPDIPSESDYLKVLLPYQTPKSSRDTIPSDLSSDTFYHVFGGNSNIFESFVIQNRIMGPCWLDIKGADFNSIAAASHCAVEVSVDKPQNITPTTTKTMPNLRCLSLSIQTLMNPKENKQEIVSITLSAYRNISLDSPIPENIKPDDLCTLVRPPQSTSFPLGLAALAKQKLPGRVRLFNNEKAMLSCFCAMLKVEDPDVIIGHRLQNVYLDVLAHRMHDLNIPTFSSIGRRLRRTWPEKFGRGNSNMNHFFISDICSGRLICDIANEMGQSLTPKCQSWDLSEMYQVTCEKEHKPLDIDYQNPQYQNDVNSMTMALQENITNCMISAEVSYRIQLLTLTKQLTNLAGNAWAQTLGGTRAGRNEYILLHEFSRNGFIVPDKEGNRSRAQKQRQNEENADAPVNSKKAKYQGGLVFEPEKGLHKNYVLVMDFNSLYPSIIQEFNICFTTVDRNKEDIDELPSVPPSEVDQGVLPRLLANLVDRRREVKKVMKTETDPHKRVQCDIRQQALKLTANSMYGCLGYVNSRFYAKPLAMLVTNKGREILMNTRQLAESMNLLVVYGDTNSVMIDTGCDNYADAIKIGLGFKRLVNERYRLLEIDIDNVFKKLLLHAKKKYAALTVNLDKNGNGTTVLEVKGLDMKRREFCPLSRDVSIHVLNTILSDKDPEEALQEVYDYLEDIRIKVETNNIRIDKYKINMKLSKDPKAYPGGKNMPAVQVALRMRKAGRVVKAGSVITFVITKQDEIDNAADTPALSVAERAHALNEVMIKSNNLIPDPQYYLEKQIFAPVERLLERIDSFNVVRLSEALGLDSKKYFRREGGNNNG
As to the kind of experiment: X-ray crystallography (3.1 Å); dGTP (5 mM) bound in active site; 200 mM Mg acetate; Crystals only: binary 0.1 M Bicine pH 8.0, 12% PEG 3350, 10 mM MgCl2, 18 °C; ternary 200 mM Mg acetate, 10% PEG 8000, 5 mM dGTP, micro-batch (3% glycerol). Primer extension assays are turnover only and not listed. To be noted: protein: recombinant; tags: N-terminal dual His/streptavidin tag, TEV-cleaved; 5' overhang 13 nt on template after extension (15 nt before); 12 bp.

`Nc1ncnc2c1ncn2[C@H]1C[C@H](O)[C@@H](COP(=O)(O)OP(=O)(O)OP(=O)(O)O)O1` [dATP]: the “primer extension assay, denaturing gel” value in data set [1] was “Residual activity of the D998N R508A N509A Pol α mutant was demonstrated by the primer extension assay”.
As to `Nc1nc2c(ncn2[C@H]2C[C@H](O)[C@@H](COP(=O)(O)OP(=O)(O)OP(=O)(O)O)O2)c(=O)[nH]1` [dGTP], the “X-ray crystal structure of ternary complex, 3.1 Å” value in data set [2] was “the R508A, N509A, D998N Pol α mutant was used”.

B1: RNA 10mer primer / DNA 16mer template (binary complex) (DNA:RNA)
?: AGGCGGGCAG
DNA: TTTTCGCTGCCCGCCT
modifications: strand 1 RNA, strand 2 DNA
For the molecule B1, the binding result in data set [3] was “binds”.

B2: RNA 10mer primer extended in crystal by two dG / DNA 25mer template (ternary complex) (DNA:RNA)
?: CGGCGGGCAGGG
DNA: TGAGCGTGTGTACCCCTGCCCGCCG
modifications: strand 1 is RNA 10mer (S5) plus two 3' deoxyguanosines; strand 2 DNA
As for B2, the binding result in data set [4] is “binds”.
